The values below come from US20020026053A1, “Novel 3-(substituted) -2- indolinones compounds and use thereof as inhibitors of protein kinase activity” (priority 1997, published 2002).

Molecules are shown by their SMILES.

In this assay the target is T1, EGFR (Homo sapiens, UniProt P00533).
T1 construct: endogenous in cells; host or cells: A431 cells (lysate, captured with SUMO1 anti-EGFR antibody)
The assay is described as follows: Biochemical EGFR Assay. Further details: concentration or dose not given beside the values. Summed up:
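Readout is ABTS absorbance at 410 nm after anti-phosphotyrosine and HRP-antibody detection of EGFR autophosphorylation. The kinase was immunocaptured from A431 lysate, exposed 30 min to test compound diluted 1:10 in TBS, then phosphorylated for 5 min with ATP/MnCl2 before an EDTA stop.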

T1 sequence (P00533 25-1210): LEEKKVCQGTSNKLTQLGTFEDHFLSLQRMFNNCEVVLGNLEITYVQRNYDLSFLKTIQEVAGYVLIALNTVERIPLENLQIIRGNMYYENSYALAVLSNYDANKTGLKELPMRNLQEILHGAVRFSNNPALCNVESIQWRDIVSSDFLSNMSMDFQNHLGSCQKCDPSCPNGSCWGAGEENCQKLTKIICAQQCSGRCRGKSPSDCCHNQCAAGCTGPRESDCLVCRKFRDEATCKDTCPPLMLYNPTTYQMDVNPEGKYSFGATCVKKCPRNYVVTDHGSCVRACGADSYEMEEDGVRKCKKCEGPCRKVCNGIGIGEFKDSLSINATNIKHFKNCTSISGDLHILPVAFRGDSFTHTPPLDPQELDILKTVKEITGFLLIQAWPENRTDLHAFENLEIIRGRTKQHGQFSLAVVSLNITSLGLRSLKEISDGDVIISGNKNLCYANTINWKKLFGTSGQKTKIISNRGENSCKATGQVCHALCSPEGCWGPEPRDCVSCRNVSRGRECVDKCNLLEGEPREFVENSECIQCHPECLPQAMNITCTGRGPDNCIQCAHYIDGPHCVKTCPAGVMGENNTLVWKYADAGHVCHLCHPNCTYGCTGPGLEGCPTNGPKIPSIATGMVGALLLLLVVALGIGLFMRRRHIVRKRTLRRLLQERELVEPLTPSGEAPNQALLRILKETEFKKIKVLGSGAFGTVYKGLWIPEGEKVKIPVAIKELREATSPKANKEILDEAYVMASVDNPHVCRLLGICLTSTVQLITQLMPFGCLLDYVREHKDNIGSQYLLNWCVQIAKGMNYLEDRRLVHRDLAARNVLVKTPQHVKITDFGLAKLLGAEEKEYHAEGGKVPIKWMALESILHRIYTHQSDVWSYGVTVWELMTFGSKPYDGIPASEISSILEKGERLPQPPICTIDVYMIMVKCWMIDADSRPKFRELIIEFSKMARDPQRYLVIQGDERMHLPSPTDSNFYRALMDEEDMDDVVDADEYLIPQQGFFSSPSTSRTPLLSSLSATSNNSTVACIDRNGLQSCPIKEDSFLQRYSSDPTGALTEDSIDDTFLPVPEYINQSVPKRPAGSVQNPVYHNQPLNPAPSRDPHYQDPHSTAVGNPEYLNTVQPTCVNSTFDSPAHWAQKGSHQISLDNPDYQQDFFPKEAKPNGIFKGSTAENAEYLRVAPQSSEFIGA

For the molecule `Cc1c(Br)cc(Br)c2c1C(=Cc1ccc(O)cc1)C(=O)N2` [10719/H07], the “Biochem EGFR % Inhibition (P.167)” value is reported as −2.8%.

For the molecule `Cc1c(Br)cc(Br)c2c1C(=Cc1ccc(N(C)C)cc1)C(=O)N2` [10719/H08], the “Biochem EGFR % Inhibition (P.167)” value is listed as 2.9%.

Take `Cc1c(Br)cc(Br)c2c1C(=Cc1ccc(F)cc1Cl)C(=O)N2` [10719/H09]: the “Biochem EGFR % Inhibition (P.167)” value was −33.5%.

Consider `Cc1c(Br)cc(Br)c2c1C(=Cc1cccc([N+](=O)[O-])c1)C(=O)N2` [10719/H10], for which the “Biochem EGFR % Inhibition (P.167)” value stood at 14.6%.

Regarding `Cc1c(Br)cc(Br)c2c1C(=Cc1ccc(F)cc1C(F)(F)F)C(=O)N2` [10719/H11], the “Biochem EGFR % Inhibition (P.167)” value was −12.0%.

Regarding `Cc1c(Br)cc(Br)c2c1C(=Cc1c(F)cc(F)cc1F)C(=O)N2` [10720/H02], the “Biochem EGFR % Inhibition (P.167)” value came to 17.0%.

Consider `COc1cc(O)ccc1C=C1C(=O)Nc2c(Br)cc(Br)c(C)c21` [10720/H03], for which the “Biochem EGFR % Inhibition (P.167)” value is listed as −13.9%.

Regarding `N#Cc1ccccc1C=C1C(=O)Nc2ccc(CCCl)cc21` [10735/G07], the “Biochem EGFR % Inhibition (P.167)” value was 4.6%.

Take `O=C1Nc2ccc(CCCl)cc2C1=Cc1c(F)cccc1F` [10735/G08]: the “Biochem EGFR % Inhibition (P.167)” value is recorded as 1.6%.

As to `O=C1Nc2ccc(CCCl)cc2C1=Cc1cccc2ccccc12` [10735/G09], the “Biochem EGFR % Inhibition (P.167)” value worked out at 19.8%.

`O=C1Nc2ccc(CCCl)cc2C1=Cc1ccc(Cl)cc1Cl` [10735/G10]: the “Biochem EGFR % Inhibition (P.167)” value came out at 4.5%.

Take `O=C1Nc2ccc(CCCl)cc2C1=Cc1ccc(-c2ccccc2)cc1` [10735/G11]: the “Biochem EGFR % Inhibition (P.167)” value was found to be 2.9%.

Take `Cc1ccccc1C=C1C(=O)Nc2c(Br)cc(Br)c(C)c21` [10735/H02]: the “Biochem EGFR % Inhibition (P.167)” value is listed as 3.6%.

In the case of `Cc1c(Br)cc(Br)c2c1C(=Cc1ccc(F)c(F)c1)C(=O)N2` [10735/H03], the “Biochem EGFR % Inhibition (P.167)” value was −1.0%.

Regarding `Cc1c(Br)cc(Br)c2c1C(=Cc1cc(F)cc(F)c1)C(=O)N2` [10735/H04], the “Biochem EGFR % Inhibition (P.167)” value is −9.3%.

In the case of `Cc1c(Br)cc(Br)c2c1C(=Cc1cccc(C(F)(F)F)c1)C(=O)N2` [10735/H05], the “Biochem EGFR % Inhibition (P.167)” value is listed as −0.3%.

With `Cc1c(Br)cc(Br)c2c1C(=Cc1cc(C(F)(F)F)cc(C(F)(F)F)c1)C(=O)N2` [10735/H06], the “Biochem EGFR % Inhibition (P.167)” value was −14.2%.

On to `Cc1c(Br)cc(Br)c2c1C(=Cc1ccccc1C#N)C(=O)N2` [10735/H07], for which the “Biochem EGFR % Inhibition (P.167)” value is 3.8%.

Turning to `Cc1c(Br)cc(Br)c2c1C(=Cc1c(F)cccc1F)C(=O)N2` [10735/H08], the “Biochem EGFR % Inhibition (P.167)” value amounted to 6.8%.

As for `Cc1c(Br)cc(Br)c2c1C(=Cc1cccc3ccccc13)C(=O)N2` [10735/H09], the “Biochem EGFR % Inhibition (P.167)” value is reported as −10.7%.

With `Cc1c(Br)cc(Br)c2c1C(=Cc1ccc(Cl)cc1Cl)C(=O)N2` [10735/H10], the “Biochem EGFR % Inhibition (P.167)” value was −16.3%.

`Cc1c(Br)cc(Br)c2c1C(=Cc1ccc(-c3ccccc3)cc1)C(=O)N2` [10735/H11]: the “Biochem EGFR % Inhibition (P.167)” value is reported as −4.2%.

With `O=C1Nc2c(Br)cc(Br)cc2C1=Cc1ccc(Cl)cc1` [10736/A02], the “Biochem EGFR % Inhibition (P.167)” value is on record as 7.7%.

For `O=C1Nc2c(Br)cc(Br)cc2C1=Cc1ccccc1C(F)(F)F` [10736/A03], the “Biochem EGFR % Inhibition (P.167)” value came out at 24.2%.

For the molecule `Cc1cccc(C=C2C(=O)Nc3c(Br)cc(Br)cc32)c1` [10736/A04], the “Biochem EGFR % Inhibition (P.167)” value came out at 14.1%.

As for `Cc1ccc(C=C2C(=O)Nc3c(Br)cc(Br)cc32)cc1` [10736/A05], the “Biochem EGFR % Inhibition (P.167)” value is on record as 80.1%.

Consider `O=C1Nc2c(Br)cc(Br)cc2C1=Cc1cccc(Cl)c1` [10736/A06], for which the “Biochem EGFR % Inhibition (P.167)” value was 34.4%.

With `O=C1Nc2c(Br)cc(Br)cc2C1=Cc1cccc(F)c1` [10736/A07], the “Biochem EGFR % Inhibition (P.167)” value was 30.2%.

As for `O=C1Nc2c(Br)cc(Br)cc2C1=Cc1ccccc1F` [10736/A08], the “Biochem EGFR % Inhibition (P.167)” value was found to be 27.6%.

As to `CCc1ccc(C=C2C(=O)Nc3c(Br)cc(Br)cc32)cc1` [10736/A09], the “Biochem EGFR % Inhibition (P.167)” value came out at 20.0%.

For `COc1cccc(C=C2C(=O)Nc3c(Br)cc(Br)cc32)c1` [10736/A10], the “Biochem EGFR % Inhibition (P.167)” value is given as −0.1%.

Take `O=C1Nc2c(Br)cc(Br)cc2C1=Cc1ccccc1Cl` [10736/A11]: the “Biochem EGFR % Inhibition (P.167)” value is −29.3%.

`O=C1Nc2ccc(I)cc2C1=Cc1ccc(Cl)cc1` [10736/B02]: the “Biochem EGFR % Inhibition (P.167)” value was −38.8%.

Consider `O=C1Nc2ccc(I)cc2C1=Cc1ccccc1C(F)(F)F` [10736/B03], for which the “Biochem EGFR % Inhibition (P.167)” value is −51.7%.

Regarding `Cc1cccc(C=C2C(=O)Nc3ccc(I)cc32)c1` [10736/B04], the “Biochem EGFR % Inhibition (P.167)” value is −9.0%.

For the molecule `Cc1ccc(C=C2C(=O)Nc3ccc(I)cc32)cc1` [10736/B05], the “Biochem EGFR % Inhibition (P.167)” value was found to be 14.9%.

Turning to `O=C1Nc2ccc(I)cc2C1=Cc1cccc(Cl)c1` [10736/B06], the “Biochem EGFR % Inhibition (P.167)” value was 12.6%.

In the case of `O=C1Nc2ccc(I)cc2C1=Cc1cccc(F)c1` [10736/B07], the “Biochem EGFR % Inhibition (P.167)” value came out at 8.4%.

As for `O=C1Nc2ccc(I)cc2C1=Cc1ccccc1F` [10736/B08], the “Biochem EGFR % Inhibition (P.167)” value stood at 8.4%.

As for `CCc1ccc(C=C2C(=O)Nc3ccc(I)cc32)cc1` [10736/B09], the “Biochem EGFR % Inhibition (P.167)” value is recorded as −3.5%.

As for `COc1cccc(C=C2C(=O)Nc3ccc(I)cc32)c1` [10736/B10], the “Biochem EGFR % Inhibition (P.167)” value is listed as 15.6%.

Consider `O=C1Nc2ccc(I)cc2C1=Cc1ccccc1Cl` [10736/B11], for which the “Biochem EGFR % Inhibition (P.167)” value is on record as −3.7%.

Turning to `Cc1c(Br)ccc2c1C(=Cc1ccc(Cl)cc1)C(=O)N2` [10736/C02], the “Biochem EGFR % Inhibition (P.167)” value is −47.1%.

For the molecule `Cc1c(Br)ccc2c1C(=Cc1ccccc1C(F)(F)F)C(=O)N2` [10736/C03], the “Biochem EGFR % Inhibition (P.167)” value stood at 0.3%.

Turning to `Cc1cccc(C=C2C(=O)Nc3ccc(Br)c(C)c32)c1` [10736/C04], the “Biochem EGFR % Inhibition (P.167)” value came out at 90.2%.

Take `Cc1ccc(C=C2C(=O)Nc3ccc(Br)c(C)c32)cc1` [10736/C05]: the “Biochem EGFR % Inhibition (P.167)” value is reported as 16.8%.

For the molecule `Cc1c(Br)ccc2c1C(=Cc1cccc(Cl)c1)C(=O)N2` [10736/C06], the “Biochem EGFR % Inhibition (P.167)” value was 4.8%.

Consider `Cc1c(Br)ccc2c1C(=Cc1cccc(F)c1)C(=O)N2` [10736/C07], for which the “Biochem EGFR % Inhibition (P.167)” value is listed as −8.1%.

`Cc1c(Br)ccc2c1C(=Cc1ccccc1F)C(=O)N2` [10736/C08]: the “Biochem EGFR % Inhibition (P.167)” value is on record as −0.5%.

`CCc1ccc(C=C2C(=O)Nc3ccc(Br)c(C)c32)cc1` [10736/C09]: the “Biochem EGFR % Inhibition (P.167)” value came to 4.6%.

For `COc1cccc(C=C2C(=O)Nc3ccc(Br)c(C)c32)c1` [10736/C10], the “Biochem EGFR % Inhibition (P.167)” value is listed as −0.3%.

On to `Cc1c(Br)ccc2c1C(=Cc1ccccc1Cl)C(=O)N2` [10736/C11], for which the “Biochem EGFR % Inhibition (P.167)” value is given as −4.5%.

For the molecule `CNS(=O)(=O)c1ccc2c(c1)C(=Cc1ccc(Cl)cc1)C(=O)N2` [10736/D02], the “Biochem EGFR % Inhibition (P.167)” value amounted to 1.8%.

Consider `CNS(=O)(=O)c1ccc2c(c1)C(=Cc1ccccc1C(F)(F)F)C(=O)N2` [10736/D03], for which the “Biochem EGFR % Inhibition (P.167)” value was −3.7%.

With `CNS(=O)(=O)c1ccc2c(c1)C(=Cc1cccc(C)c1)C(=O)N2` [10736/D04], the “Biochem EGFR % Inhibition (P.167)” value is given as 24.9%.

As for `CNS(=O)(=O)c1ccc2c(c1)C(=Cc1ccc(C)cc1)C(=O)N2` [10736/D05], the “Biochem EGFR % Inhibition (P.167)” value is −7.9%.

With `CNS(=O)(=O)c1ccc2c(c1)C(=Cc1cccc(Cl)c1)C(=O)N2` [10736/D06], the “Biochem EGFR % Inhibition (P.167)” value turned out to be 29.7%.

Regarding `CNS(=O)(=O)c1ccc2c(c1)C(=Cc1cccc(F)c1)C(=O)N2` [10736/D07], the “Biochem EGFR % Inhibition (P.167)” value is 47.1%.

As to `CNS(=O)(=O)c1ccc2c(c1)C(=Cc1ccccc1F)C(=O)N2` [10736/D08], the “Biochem EGFR % Inhibition (P.167)” value is listed as 90.9%.

With `CCc1ccc(C=C2C(=O)Nc3ccc(S(=O)(=O)NC)cc32)cc1` [10736/D09], the “Biochem EGFR % Inhibition (P.167)” value is 66.8%.

As for `CNS(=O)(=O)c1ccc2c(c1)C(=Cc1cccc(OC)c1)C(=O)N2` [10736/D10], the “Biochem EGFR % Inhibition (P.167)” value is listed as 10.5%.

With `CNS(=O)(=O)c1ccc2c(c1)C(=Cc1ccccc1Cl)C(=O)N2` [10736/D11], the “Biochem EGFR % Inhibition (P.167)” value came to 51.7%.

On to `O=C1Nc2ccc(S(=O)(=O)Nc3ccc(C(F)(F)F)cc3)cc2C1=Cc1ccc(Cl)cc1` [10736/E02], for which the “Biochem EGFR % Inhibition (P.167)” value was 2.0%.

For `O=C1Nc2ccc(S(=O)(=O)Nc3ccc(C(F)(F)F)cc3)cc2C1=Cc1ccccc1C(F)(F)F` [10736/E03], the “Biochem EGFR % Inhibition (P.167)” value worked out at 90.2%.

Turning to `Cc1cccc(C=C2C(=O)Nc3ccc(S(=O)(=O)Nc4ccc(C(F)(F)F)cc4)cc32)c1` [10736/E04], the “Biochem EGFR % Inhibition (P.167)” value was −17.2%.

In the case of `Cc1ccc(C=C2C(=O)Nc3ccc(S(=O)(=O)Nc4ccc(C(F)(F)F)cc4)cc32)cc1` [10736/E05], the “Biochem EGFR % Inhibition (P.167)” value is 17.0%.

Take `O=C1Nc2ccc(S(=O)(=O)Nc3ccc(C(F)(F)F)cc3)cc2C1=Cc1cccc(Cl)c1` [10736/E06]: the “Biochem EGFR % Inhibition (P.167)” value worked out at 47.3%.

Regarding `O=C1Nc2ccc(S(=O)(=O)Nc3ccc(C(F)(F)F)cc3)cc2C1=Cc1cccc(F)c1` [10736/E07], the “Biochem EGFR % Inhibition (P.167)” value is given as −26.7%.

Consider `O=C1Nc2ccc(S(=O)(=O)Nc3ccc(C(F)(F)F)cc3)cc2C1=Cc1ccccc1F` [10736/E08], for which the “Biochem EGFR % Inhibition (P.167)” value is listed as −47.3%.

Turning to `CCc1ccc(C=C2C(=O)Nc3ccc(S(=O)(=O)Nc4ccc(C(F)(F)F)cc4)cc32)cc1` [10736/E09], the “Biochem EGFR % Inhibition (P.167)” value is −40.1%.

As for `COc1cccc(C=C2C(=O)Nc3ccc(S(=O)(=O)Nc4ccc(C(F)(F)F)cc4)cc32)c1` [10736/E10], the “Biochem EGFR % Inhibition (P.167)” value is given as −24.0%.

As for `O=C1Nc2ccc(S(=O)(=O)Nc3ccc(C(F)(F)F)cc3)cc2C1=Cc1ccccc1Cl` [10736/E11], the “Biochem EGFR % Inhibition (P.167)” value is −74.1%.

Regarding `O=C1Nc2ccc(S(=O)(=O)N3CCOCC3)cc2C1=Cc1ccc(Cl)cc1` [10736/F02], the “Biochem EGFR % Inhibition (P.167)” value was −4.5%.
